Tests used:
Palbociclib = compound: CC(=O)c1c(C)c2cnc(Nc3ccc(N4CCNCC4)cn3)nc2n(C2CCCC2)c1=O [Palbociclib]; details: max 10 µM
Outline: (§1)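 Cancer cell lines were seeded in 1536-well plates in 7.5 μl DMEM/F12 or RPMI with 10% FBS, held 24 hours at 37°C and 5% CO2, then dosed for 72 hours (final DMSO typically 0.2%). Viability was read by CellTiter-Glo 2.0 luminescence and scaled between blank-well and DMSO-well means. The single-agent IC50 comes from dose responses fitted to a two-parameter logistic curve with a non-linear mixed effects model.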

AZD1775 = compound: C=CCn1c(=O)c2cnc(Nc3ccc(N4CCN(C)CC4)cc3)nc2n1-c1cccc(C(C)(C)O)n1 [AZD1775]; details: max 3 µM
Outline: as §1

Taselisib = compound: Cc1nc(-c2cn3c(n2)-c2ccc(-c4cnn(C(C)(C)C(N)=O)c4)cc2OCC3)n(C(C)C)n1 [Taselisib]; details: max 10 µM
Outline: as §1

AZD5153 = compound: COc1nnc2ccc(N3CCC(c4ccc(OCCN5CCN(C)C(=O)[C@H]5C)cc4)CC3)nn12 [AZD5153]; details: max 1 µM
Outline: as §1

Alisertib = compound: COc1cc(Nc2ncc3c(n2)-c2ccc(Cl)cc2C(c2c(F)cccc2OC)=NC3)ccc1C(=O)O [Alisertib]; details: max 10 µM
Outline: as §1

AZD4320 = compound: CN(CC[C@H](CSC1=CC=CC=C1)NC2=C(C=C(C=C2)S(=O)(=O)NC(=O)C3=CC=C(C=C3)N4CCC(CC4)[C@H](C5=CC=CC=C5C6=CC=C(C=C6)Cl)O)S(=O)(=O)C(F)(F)F)CCO [AZD4320]; details: max 1 µM
Outline: as §1

AZD8186 = compound: C[C@@H](Nc1cc(F)cc(F)c1)c1cc(C(=O)N(C)C)cc2c(=O)cc(N3CCOCC3)oc12 [AZD8186]; details: max 10 µM
Outline: as §1

Trametinib = compound: CC(=O)Nc1cccc(-n2c(=O)n(C3CC3)c(=O)c3c(Nc4ccc(I)cc4F)n(C)c(=O)c(C)c32)c1 [Trametinib]; details: max 1 µM
Outline: as §1

Crizotinib = compound: C[C@@H](Oc1cc(-c2cnn(C3CCNCC3)c2)cnc1N)c1c(Cl)ccc(F)c1Cl [Crizotinib]; details: max 10 µM
Outline: as §1

AZD6738 = compound: C[C@@H]1COCCN1C2=NC(=NC(=C2)C3(CC3)[S@](=N)(=O)C)C4=C5C=CNC5=NC=C4 [AZD6738]; details: max 10 µM
Outline: as §1

SRA737 = compound: N#Cc1cnc(Nc2cc(NC[C@H]3CNCCO3)c(C(F)(F)F)cn2)cn1 [SRA737]; details: max 10 µM
Outline: as §1

Olaparib = compound: O=C(c1cc(Cc2n[nH]c(=O)c3ccccc23)ccc1F)N1CCN(C(=O)C2CC2)CC1 [Olaparib]; details: max 10 µM
Outline: as §1

Dasatinib = compound: CC1=C(C(=CC=C1)Cl)NC(=O)C2=CN=C(S2)NC3=CC(=NC(=N3)C)N4CCN(CC4)CCO [Dasatinib]; details: max 2 µM
Outline: as §1

[1] = compound: O=C(Nc1ccc2[nH]nc(-c3ccncc3)c2c1)[C@@H]1CCN(CC(=O)N2CCN(c3ccc(-c4ncccn4)cc3)CC2)C1; details: max 5 µM
Outline: as §1

AZD7648 = compound: Cc1cc2ncnn2cc1Nc1ncc2c(n1)n(C1CCOCC1)c(=O)n2C [AZD7648]; details: max 10 µM
Outline: as §1

MK-2206 = compound: NC1(c2ccc(-c3nc4ccn5c(=O)[nH]nc5c4cc3-c3ccccc3)cc2)CCC1 [MK-2206]; details: max 10 µM
Outline: as §1

Gemcitabine = compound: Nc1ccn([C@@H]2O[C@H](CO)[C@@H](O)C2(F)F)c(=O)n1 [Gemcitabine]; details: max 0.3 µM
Outline: as §1

SG3199 = compound: CC1=CN2[C@@H](C1)C=NC3=CC(=C(C=C3C2=O)OC)OCCCCCOC4=C(C=C5C(=C4)N=C[C@@H]6CC(=CN6C5=O)C)OC [SG3199]; details: max 0.001 µM
Outline: as §1

Gefitinib = compound: COc1cc2ncnc(Nc3ccc(F)c(Cl)c3)c2cc1OCCCN1CCOCC1 [Gefitinib]; details: max 10 µM
Outline: as §1

AZD1390 = compound: CC(C)n1c(=O)n(C)c2cnc3cc(F)c(-c4ccc(OCCCN5CCCCC5)nc4)cc3c21 [AZD1390]; details: max 0.3 µM
Outline: as §1

AZD5991 = compound: Cc1c2c(nn1C)CSCc1cc(n(C)n1)CSc1cc(c3ccccc3c1)OCCCc1c(C(=O)O)n(C)c3c-2c(Cl)ccc13 [AZD5991]; details: max 1 µM
Outline: as §1

Carboplatin = compound: C1CC(C1)(C(=O)[O-])C(=O)[O-].N.N.[Pt+2] [Carboplatin]; details: max 10 µM
Outline: as §1

Lapatinib = compound: CS(=O)(=O)CCNCc1ccc(-c2ccc3ncnc(Nc4ccc(OCc5cccc(F)c5)c(Cl)c4)c3c2)o1 [Lapatinib]; details: max 10 µM
Outline: as §1

Etoposide = compound: COc1cc([C@@H]2c3cc4c(cc3[C@@H](O[C@@H]3O[C@@H]5CO[C@@H](C)O[C@H]5[C@H](O)[C@H]3O)[C@H]3COC(=O)[C@H]23)OCO4)cc(OC)c1O [Etoposide]; details: max 10 µM
Outline: as §1

Doxorubicin = compound: COc1cccc2c1C(=O)c1c(O)c3c(c(O)c1C2=O)C[C@@](O)(C(=O)CO)C[C@@H]3O[C@H]1C[C@H](N)[C@H](O)[C@H](C)O1 [Doxorubicin]; details: max 1 µM
Outline: as §1

Venetoclax = compound: CC1(C)CCC(CN2CCN(c3ccc(C(=O)NS(=O)(=O)c4ccc(NCC5CCOCC5)c([N+](=O)[O-])c4)c(Oc4cnc5[nH]ccc5c4)c3)CC2)=C(c2ccc(Cl)cc2)C1 [Venetoclax]; details: max 1 µM
Outline: as §1

5-Fluorouracil = compound: O=c1[nH]cc(F)c(=O)[nH]1 [5-Fluorouracil]; details: max 20 µM
Outline: as §1

Selumetinib = compound: Cn1cnc2c(F)c(Nc3ccc(Br)cc3Cl)c(C(=O)NOCCO)cc21 [Selumetinib]; details: max 10 µM
Outline: as §1

SN-38 = compound: CCc1c2c(nc3ccc(O)cc13)-c1cc3c(c(=O)n1C2)COC(=O)[C@]3(O)CC [SN-38]; details: max 0.3 µM
Outline: as §1

Paclitaxel = compound: CC(=O)O[C@H]1C(=O)[C@@]2(C)[C@H]([C@H](OC(=O)c3ccccc3)[C@]3(O)C[C@H](OC(=O)[C@H](O)[C@@H](NC(=O)c4ccccc4)c4ccccc4)C(C)=C1C3(C)C)[C@]1(OC(C)=O)CO[C@@H]1C[C@@H]2O [Paclitaxel]; details: max 3 µM
Outline: as §1

AZD5363 = compound: C1CN(CCC1(C(=O)N[C@@H](CCO)C2=CC=C(C=C2)Cl)N)C3=NC=NC4=C3C=CN4 [AZD5363]; details: max 10 µM
Outline: as §1

Savolitinib = compound: C[C@@H](c1ccc2nccn2c1)n1nnc2ncc(-c3cnn(C)c3)nc21 [Savolitinib]; details: max 1 µM
Outline: as §1

Prexasertib = compound: COc1cccc(OCCCN)c1-c1cc(Nc2cnc(C#N)cn2)n[nH]1 [Prexasertib]; details: max 1 µM
Outline: as §1

AZD2811 = compound: CCN(CCO)CCCOc1ccc2c(Nc3cc(CC(=O)Nc4cccc(F)c4)[nH]n3)ncnc2c1 [AZD2811]; details: max 1 µM
Outline: as §1

AZD0156 = compound: CN(C)CCCOc1ccc(-c2ccc3ncc4c(c3c2)n(C2CCOCC2)c(=O)n4C)cn1 [AZD0156]; details: max 3 µM
Outline: as §1

Cell Line	IC50, cell viability 72 h (Palbociclib)	IC50, cell viability 72 h (AZD1775)	IC50, cell viability 72 h (Taselisib)	IC50, cell viability 72 h (AZD5153)	IC50, cell viability 72 h (Alisertib)	IC50, cell viability 72 h (AZD4320)	IC50, cell viability 72 h (AZD8186)	IC50, cell viability 72 h (Trametinib)	IC50, cell viability 72 h (Crizotinib)	IC50, cell viability 72 h (AZD6738)	IC50, cell viability 72 h (SRA737)	IC50, cell viability 72 h (Olaparib)	IC50, cell viability 72 h (Dasatinib)	IC50, cell viability 72 h [1]	IC50, cell viability 72 h (AZD7648)	IC50, cell viability 72 h (MK-2206)	IC50, cell viability 72 h (Gemcitabine)	IC50, cell viability 72 h (SG3199)	IC50, cell viability 72 h (Gefitinib)	IC50, cell viability 72 h (AZD1390)	IC50, cell viability 72 h (AZD5991)	IC50, cell viability 72 h (Carboplatin)	IC50, cell viability 72 h (Lapatinib)	IC50, cell viability 72 h (Etoposide)	IC50, cell viability 72 h (Doxorubicin)	IC50, cell viability 72 h (Venetoclax)	IC50, cell viability 72 h (5-Fluorouracil)	IC50, cell viability 72 h (Selumetinib)	IC50, cell viability 72 h (SN-38)	IC50, cell viability 72 h (Paclitaxel)	IC50, cell viability 72 h (AZD5363)	IC50, cell viability 72 h (Savolitinib)	IC50, cell viability 72 h (Prexasertib)	IC50, cell viability 72 h (AZD2811)	IC50, cell viability 72 h (AZD0156)
COR-L279 (Small Cell Lung Carcinoma)	> 10000 nM	1600 nM	2130 nM	178 nM	952 nM	198 nM	7510 nM	> 1000 nM	3710 nM	7380 nM	> 10000 nM	3430 nM	> 2000 nM	> 5000 nM	> 10000 nM	3150 nM	34.6 nM	> 1 nM	> 10000 nM	> 300 nM	> 1000 nM	> 10000 nM	6640 nM	843 nM	42.1 nM	> 1000 nM	> 20000 nM	> 10000 nM	1.69 nM	< 3 nM	9250 nM	> 1000 nM	97.9 nM	93 nM	> 3000 nM
CW-2 (Colorectal Carcinoma)	> 10000 nM	2720 nM	> 10000 nM	861 nM	> 10000 nM	> 1000 nM	> 10000 nM	> 1000 nM	> 10000 nM	> 10000 nM	> 10000 nM	> 10000 nM	> 2000 nM	> 5000 nM	> 10000 nM	> 10000 nM	246 nM	> 1 nM	> 10000 nM	> 300 nM	> 1000 nM	> 10000 nM	> 10000 nM	> 10000 nM	> 1000 nM	> 1000 nM	> 20000 nM	> 10000 nM	150 nM	1590 nM	> 10000 nM	> 1000 nM	> 1000 nM	> 1000 nM	> 3000 nM

Source: the supplement of paper PMC11061612
